Measured values published in patent US20110082204A1, “N-alkylcarbonyl-amino acid ester and N-alkylcarbonyl-amino lactone compounds and their use” (priority 2006, published 2011).

Key:
[1] = Log P of tested compounds; format: physicochemical
eyelids/ocular surface = experiment: Cooling after wiping closed eyelids with a towelette; format: in vivo, human; conditions: eye wipes, 1 mg/ml in 5%-95% v/v ethanol-distilled water
Protocol: A second method of testing was to take a towelette saturated with a test solution of the cooling agent and to wipe the towelette over the dosed eyelids. The presence or absence of cooling (or irritanty, if applicable) sensations was then recorded at 10 minute intervals until the cessation of coolness in two successive intervals.
For testing of cooling compounds delivered to the eyelids with a towelette, the following procedures were used in the experiments of Table 3 and in Study 5 and 6. Three ml of liquid suspension or solution in distilled water was added to a 0.4 g cotton rectangle (50 mm×60 mm) (CS-being, Daisan Cotton, Japan) and individually sealed with a vaccuum apparatus (Foodsaver®, Jarden Corp.). Samples were stored in the freezer or refrigerator and thawed to room temperature before use. Wiping with the cotton pad delivers 40 to 45 μl of liquid composition to the eyelids ([…] to 22 μl per eye). So, if the concentration of the test substance was 1 mg/ml, the dose delivered to both eyes is a total of ˜40 to […], or ˜20 μg per eye. This method allows a reliable delivery of test substances because the dissolved or suspended particles in solution are evenly dispersed on the cotton pad in an excess volume of liquid. The presence or absence of cooling sensations was noted as being present or absent at 5 to 10 min intervals until no coolness was noticeable in two successive test intervals. Only the duration of cooling on the ocular surface was recorded, without an attempt to quantify the intensity of the sensation.

philtrum skin = experiment: Cooling sensation after ointment applied to philtrum skin; format: in vivo, human; conditions: for Duration of cooling, Philtrum Skin: 5 mg/ml in Aquaphor ointment on philtrum skin; for duration of cooling (FIG. 1): 40 to 70 mg of 1% wt/vol (10 mg/ml) ointment on skin above the upper lips; for duration of action / onset on philtrum skin: Study 1
Text: A reliable place for topical application is the skin above the upper lip (above the vermilion border of the lips), on the philtrum, lateral to the philtrum until the nasolabial folds, and on the lower nostrils (subnasale). This part of the face is known to be densely innervated with cold receptors, second only to the surfaces of the eyeball and anogenitalia.
The intensity of the subjective skin sensation is rated as 0, 1, 2 or 3 with: 0 as no change; 1 as slight coolness, cold, or tingling; 2 as clear-cut signal of coolness, cold, or tingling; and 3 as robust cooling or cold. The intervals for recording sensations are 5 to 10 minutes, until two successive zeroes are obtained. The results (shown in FIG. 1) are averaged values of 4 to 6 separate trials in the same individual. The data are plotted using SigmaPlot® (Systat Software, Point Richmond Calif.) and a smoothing function with a negative exponential was used for analysis and statistical fit of the results. Confirmatory trials of cooling action of the long-acting NACE compounds were obtained in 2 to 4 individuals but not quantified for some because of the large number of chemicals that were evaluated
(§1) The onset of drug action is taken as the time to reach 2 units of coolness intensity, and offset of drug action is the time when coolness intensity drops below 2, after previously surpassing 2 units. The duration of cooling action is defined as the offset time minus the onset time. […] The quality of the sensation is noted, for example, as pure refreshing coolness, or if the sensation is accompanied by irritation (stinging or burning). The quality of the sensation is not rated for intensity.
For bioassay on the skin, approximately 30 mg was stirred and dissolved in 3 g of warm liquid Aquaphor® ointment to a yield 5 to 10 mg/ml (0.5% to 1.0 wt/vol) ointment. After cooling, 40 to 70 mg of the solid ointment was placed on the tip of a plastic stick and applied to the skin above the upper lip, on the philtrum, and lateral to the philtrum, up to the nasolabial folds, of test subjects and the onset and duration of cooling sensations noted.
The intensity of the subjective skin sensation was rated as 0, 1, 2 or 3 with: 0 as no change; 1 as slight coolness, cold, or tingling; 2 as clear signal of coolness, cold, or tingling; and 3 as robust cooling or cold. The intervals for recording sensations were 5 to 10 minutes, until two successive zeroes were obtained. The results (shown in FIG. 1) are averaged values of 4 to 6 separate trials in the same individual. The data are plotted using SigmaPlot® (Systat Software, Point Richmond, Calif., USA) and a smoothing function with a negative exponential was used for analysis and statistical fit of the results.
as §1, with “was” for “is”, “was also noted: such” for “is noted, for example,”
For the results in FIG. 1, the test compounds were singly applied to the skin above the upper lips at a 40 to 70 mg dose of a 1% wt/vol (10 mg/ml) ointment. Subsequently, for the results shown in Table 3, the test dose on the philtrum was reduced to a 0.5% wt/vol (5 mg/ml) ointment. The reason for choosing a lower dose was to increase the number of trials per individual and to have a reduced chance of substances accumulating in the skin.

[2] = test system: dorsal surface of the tongue; conditions: threshold amount producing cooling on tongue of human volunteers; values from Watson US 04178459; cited from earlier work
periorbital skin = experiment: Ointment applied to periorbital skin: coolness, eye irritancy, alerting (Study 3); format: in vivo, human; conditions: ointment on periorbital area; for skin coolness and refreshment: conditions similar to Study 3
Text: The ointment was also applied to the periorbital skin (upper and lower eyelids and on skin adjacent to the lateral canthus) for tests of irritancy near the eyes, and the subject is asked if irritation is present or absent. The intensity of the eye sensation is not rated.
For tests of irritancy near the eyes in Study 3 and 4, the ointment was applied to the periorbital skin (upper and lower eyelids and on skin adjacent to the lateral canthus), and the subject asked if irritation is present or absent. The intensity of the eye sensation is not rated, but just noted as being present or absent
A 1% preparation of 2-isopropyl-5-methyl-cyclohexanecarbonyl D-alanine methyl ester in Aquaphor® ointment was applied bilaterally to the periorbital area of four individuals. […] This experiment was then repeated three days later in the evening with the same individuals whose occupations required daylong activities before a computer screen.

SMILES | Log P [1] | Threshold tongue [2] [µg] | also measured
CC1CCC(C(C)C)C(C(=O)NC2CCOC2=O)C1 (mixture of isomers) [racemic Hsl] | 2.5 |  | 
CCCCOC(=O)[C@@H](C)NC(=O)[C@@H]1C[C@H](C)CC[C@H]1C(C)C [D-Ala nBu Ester] | 4.4 |  | Duration of cooling, Eyelids/Ocular Surface (eyelids/ocular surface): 40 min; Duration of cooling, Philtrum Skin (philtrum skin): 80 min
CCCOC(=O)[C@@H](C)NC(=O)[C@@H]1C[C@H](C)CC[C@H]1C(C)C [D-Ala nPr Ester] | 3.8 |  | Duration of cooling, Eyelids/Ocular Surface (eyelids/ocular surface): 65 min; Duration of cooling, Philtrum Skin (philtrum skin): 108 min
CC(C)[C@@H]1CC[C@@H](C)C[C@H]1C(=O)N[C@@H]1CCOC1=O [D-Hsl] | 2.5 |  | duration of cooling (FIG. 1) (philtrum skin): 1.3 h
COC(=O)[C@@H](C)N(C)C(=O)[C@@H]1C[C@H](C)CC[C@H]1C(C)C [D-NMe Ala Ester] |  |  | Duration of cooling, Eyelids/Ocular Surface (eyelids/ocular surface): 0 min; Duration of cooling, Philtrum Skin (philtrum skin): 0 min
COC(=O)[C@H](NC(=O)[C@@H]1C[C@H](C)CC[C@H]1C(C)C)C(C)C [D-Val Me Ester] | 4.2 |  | 
COC(=O)CCC(NC(=O)C1CC(C)CCC1C(C)C)C(=O)OC (centres unmarked) [Glu(OMe) Me Ester] | 2.2 |  | 
CCOC(=O)CNC(=O)[C@@H]1C[C@H](C)CC[C@H]1C(C)C [Gly Et Ester (WS-5), reference compound] | 2.9 | 0.2 | Duration of cooling, Eyelids/Ocular Surface (eyelids/ocular surface): 15 min; Duration of cooling, Philtrum Skin (philtrum skin): 24 min; duration of cooling (FIG. 1) (philtrum skin): 0.5 h; duration of action / onset on philtrum skin (philtrum skin): short duration of action (less than 1 hour) on the philtrum skin or slow onset (more than 5 minutes)
COC(=O)CNC(=O)C1CC(C)CCC1C(C)C (centres unmarked) [Gly Me Ester (WS-31), reference compound] | 2.4 | 0.6 | duration of action / onset on philtrum skin (philtrum skin): short duration of action (less than 1 hour) on the philtrum skin or slow onset (more than 5 minutes)
CCCCOC(=O)CNC(=O)[C@@H]1C[C@H](C)CC[C@H]1C(C)C [Gly nBu Ester] | 4.0 |  | Duration of cooling, Eyelids/Ocular Surface (eyelids/ocular surface): 35 min; Duration of cooling, Philtrum Skin (philtrum skin): 38 min
CCCOC(=O)CNC(=O)[C@@H]1C[C@H](C)CC[C@H]1C(C)C [Gly nPr Ester] | 3.4 | 0.3 | Duration of cooling, Eyelids/Ocular Surface (eyelids/ocular surface): 54 min; Duration of cooling, Philtrum Skin (philtrum skin): 42 min
CCOC(=O)[C@H](C)NC(=O)[C@@H]1C[C@H](C)CC[C@H]1C(C)C [L-Ala Et Ester] | 3.1 | 0.4 | Duration of cooling, Eyelids/Ocular Surface (eyelids/ocular surface): 0 min; Duration of cooling, Philtrum Skin (philtrum skin): 34 min
COC(=O)[C@H](C)NC(=O)[C@@H]1C[C@H](C)CC[C@H]1C(C)C [L-Ala Me Ester] | 2.8 | 0.6 | 
CC(C)[C@@H]1CC[C@@H](C)C[C@H]1C(=O)N[C@H]1CCOC1=O [L-Hsl] | 2.5 |  | 
COC(=O)[C@H](CC(C)C)NC(=O)[C@@H]1C[C@H](C)CC[C@H]1C(C)C [L-Leu Me Ester] | 4.3 |  | 
CC(C)[C@@H]1CC[C@@H](C)C[C@H]1C(=O)N[C@@H](CCCCNC(=O)OCc1ccccc1)C(=O)OC(C)(C)C [L-Lys(Z) t-Bu Ester] | 5.9 |  | 
COC(=O)[C@@H]1CCCN1C(=O)[C@@H]1C[C@H](C)CC[C@H]1C(C)C [L-Pro Me Ester] | 3.3 |  | 
CCOC(=O)[C@H](CO)NC(=O)[C@@H]1C[C@H](C)CC[C@H]1C(C)C [L-Ser Et Ester] | 1.8 |  | 
COC(=O)[C@@H](NC(=O)[C@@H]1C[C@H](C)CC[C@H]1C(C)C)C(C)C [L-Val Me Ester] | 4.2 |  | 
CCOC(=O)C(C)N(C)C(=O)C1CC(C)CCC1C(C)C [N—Me-D-Ala Et Ester] | 3.2 |  | 
CCOC(=O)CN(C)C(=O)[C@@H]1C[C@H](C)CC[C@H]1C(C)C [Sar Et Ester] | 2.9 | 0.8 | 
CCNC(=O)C1CC(C)CCC1C(C)C (centres unmarked) [WS-3, reference compound] | 3.7 | 0.2 | irritation of skin / eye surfaces (periorbital skin): produced significant skin and eye irritation; skin coolness and refreshment (periorbital skin): did not enhance skin coolness or provide satisfactory refreshment; duration of cooling (FIG. 1) (philtrum skin): 0.3 h; duration of action / onset on philtrum skin (philtrum skin): short duration of action (less than 1 hour) on the philtrum skin or slow onset (more than 5 minutes)
COc1ccc(NC(=O)[C@@H]2C[C@H](C)CC[C@H]2C(C)C)cc1 [WS-12, reference compound] | 5.3 | 0.2 | duration of action / onset on philtrum skin (philtrum skin): short duration of action (less than 1 hour) on the philtrum skin or slow onset (more than 5 minutes)
CC(C)[C@@H]1CC[C@@H](C)C[C@H]1C(=O)NC(C)(C)C [WS-14] | 4.5 | 0.4 | irritation of skin / eye surfaces (periorbital skin): produced significant skin and eye irritation; skin coolness and refreshment (periorbital skin): did not enhance skin coolness or provide satisfactory refreshment
CNC(=O)C(C)(C(C)C)C(C)C [WS-23, N-2,3-trimethyl-2-isopropylbutanamide] |  |  | irritation of skin / eye surfaces (periorbital skin): produced significant skin and eye irritation; skin coolness and refreshment (periorbital skin): did not enhance skin coolness or provide satisfactory refreshment; duration of action / onset on philtrum skin (philtrum skin): short duration of action (less than 1 hour) on the philtrum skin or slow onset (more than 5 minutes)
CCOC(=O)CCNC(=O)[C@@H]1C[C@H](C)CC[C@H]1C(C)C [β-Ala Et Ester] | 3.1 | 1.5 | 
